Entries after “also recorded” stand apart in the source; their conditions may differ. Where a name gives a salt, the structure may show the parent alone.
Assays:
Assay type in all cases: cell-based
human alpha4beta2 nAChRs [1] = molecular target: T1, human alpha4beta2 nAChRs (Homo sapiens, UniProt P17787+P43681); assay: Positive allosteric modulation of agonist-evoked currents, two-electrode voltage clamp in Xenopus oocytes (Example 1); conditions: for positive allosteric modulator activity in the presence of compound 1 hemi-galactarate dihydrate: 1 μM PAM; for dependence of potentiation on the order of agonist and PAM application: agonist compound 1 hemi-galactarate dihydrate; for maximal current evoked by compound 1 hemi-galactarate dihydrate / shift of the concentration activation curve to compound 1 hemi-galactarate dihydrate: presence vs absence of 1 μM PAM
T1 construct: expressed in transfected cells; host or cells: Xenopus laevis oocytes (cDNA injection)
Experimental: • Acetylcholine chloride • 100 mM stock solution in bi-distilled water 1.3 Test system • Apparatus: Automated Injection and Recording Apparatus, HiQScreen • Species of donor animals: Xenopus • Strain of animals: Laevis • Origin (supplier) of animals: HiQScreen Sàrl, Geneva • Body Weight of animals: 150 g to 300 g • Animal maintenance 3 to 5 per vivarium • Room temperature: 20-22° C. • Lighting times: Vivarium were exposed to daylight with additional artificial lighting (6 am-8 pm in summer; 8 am-7 pm in winter). • Food: Food pellets, ad libitum • Source of biological material • and isolation procedure: Abdominal incision to remove ovaries • Experimental conditions in Oocyte incubation: Barth solution containing in mM NaCl 88, • vitro: […] OR2 medium containing in mM: […] Two-electrode voltage clamp, using proprietary automated system equipped with a Geneclamp amplifier (Axon Instrument, Foster City, Calif., USA), or HiClamp (Multichannel Systems, Germany) Abbreviations: Ach, Acetylcholine; nAChR, Nicotinic acetylcholine receptor; SEM, Standard error of the mean; PAM, Positive allosteric modulator All experiments were carried out at human nAChRs expressed in Xenopus oocytes using the method of cDNA expression. Xenopus oocytes were prepared and injected using standard procedures. Briefly, ovaries were harvested from Xenopus Laevis females that have been deeply anesthetized by cooling at 4° C. and Tricaine methanesulfonate (MS-222 at a concentration of 150 mg/L) in sodium bicarbonate (300 mg/L). Once anesthetized the animal was decapitated and pithed following the rules of animal rights from the Geneva canton. […] All recordings were performed at 18° C. and cells superfused with OR2 medium containing in mM: […] Currents evoked by ACh or other agonists were recorded using an automated process equipped with standard two-electrode voltage-clamp configuration (TEVC). Data were captured and analyzed using a HiQScreen proprietary data acquisition and analysis software running under Matlab (Mathworks Inc.). […] Compounds were dissolved in OR2 as stock solution (1 mM) and the final dilution to the desired concentration was made on the day of the experiment. Injections of cDNAs encoding for the human alpha4beta2, were performed in at least 95 oocytes were performed using a proprietary automated injection device (Hogg et al., J. Neurosci. Methods, 2008) and receptor expression examined at least two days later. Oocytes were poked with two electrodes and their membrane potential maintained, unless indicated, at −80 mV throughout the experiment. A protocol to determine the allosteric modulation at the alpha4beta2 nAChRs in the oocytes expressing the receptor was developed. Oocytes expressing alpha4beta2 nAChRs were exposed to increasing concentrations of ACh while the response was evaluated. This was repeated with the addition of a fixed concentration of the allosteric modulator. The current evoked from the exposure to the agonist with the modulator was recorded and compared to currents evoked in the absence of the modulator. To assess the effects of positive allosteric modulators (Br-PBTC and NS-9283) a protocol of determination of the concentration activation curve in absence and presence of the PAM was designed. […] To assess the positive allosteric modulator effects of NS-9283 at the compound 1 hemi-galactarate dihydrate the same experimental protocol was conducted using 1 μM of the modulator. […] To further evaluate the PAM effects, the modulation was measured either as a first application and compared versus the subsequent agonist evoked response or, vice versa, by first exposing the cell to the agonist alone and then to the PAM and the agonist applied during a sustained PAM exposure. […] The same experiment was then conducted for compound 1 hemi-galactarate dihydrate as the agonist and Br-PBTC as the modulator or NS-9283 as the modulator.

human alpha4beta2 nAChRs [2] = molecular target: T1, human alpha4beta2 nAChRs; assay: Desensitization by sustained (1 hour) agonist exposure and recovery, without and with PAM, Xenopus oocytes (Example 1); conditions: for effect of PAM on recovery from varenicline tartrate desensitization: 300 μM varenicline tartrate 1 hour, wash of 3 hours; for effect of PAM on recovery from varenicline tartrate desensitization / effect of PAM on amplitude of the current evoked by varenicline tartrate: 1 μM PAM; for effect of PAM on amplitude of the current evoked by varenicline tartrate: 300 μM varenicline tartrate; for effect of PAM on profile of compound 1 hemi-galactarate dihydrate desensitization and recovery: 1 mM agonist, co-application of 1 μM modulator
[3] = molecular target: T2, human nAChR alpha3alpha5beta4 (Homo sapiens, UniProt P30532+P30926+P32297); assay: Agonist activity, two-electrode voltage clamp in Xenopus oocytes (Examples 2 and 5); conditions: for agonist character: versus ACh response, mono-citrate
T2 construct: expressed in transfected cells; host or cells: Xenopus laevis oocytes (cDNA injection)
Experimental: (§1) All experiments were carried out at human nAChRs expressed in Xenopus oocytes using the method of cDNA expression. Xenopus oocytes were prepared and injected using standard procedures.
(§2) Briefly, ovaries were harvested from Xenopus Laevis females that have been deeply anesthetized by cooling at 4° C. and Tricaine methanesulfonate (MS-222 at a concentration of 150 mg/L) in sodium bicarbonate (300 mg/L). Once anesthetized the animal was decapitated and pithed following the rules of animal rights from the Geneva canton. A small piece of ovary was isolated for immediate preparation while the remaining part was placed at 4° C. in a sterile Barth solution containing in mM NaCl 88, KCl 1, NaHCO32.4, HEPES 10, MgSO4.7H2O 0.82, Ca(NO3)2.4H2O 0.33, CaCl2.6H2O 0.41, at pH 7.4, and supplemented with 20 μg/ml of kanamycin, 100 unit/ml penicillin. All recordings were performed at 18° C. and cells superfused with OR2 medium containing in mM: NaCl 88, KCl 2.5, HEPES 5, CaCl2.2H2O 1.8, MgCl2.6H2O 1, pH 7.4.
(§3) Currents evoked by ACh or other agonists were recorded using an automated process equipped with standard two-electrode voltage-clamp configuration (TEVC). Data were captured and analyzed using a HiQScreen proprietary data acquisition and analysis software running under Matlab (Mathworks Inc.).
(§4) See Example 1. […] The test concentration of acetylcholine chloride was 1280 micromolar.
(§5) Injections of cDNAs encoding for the human alpha3beta4, alpha3alpha5beta4, alpha4beta2, and alpha7 were performed in at least 95 oocytes were performed using a proprietary automated injection and receptor expression examined at least two days later. Oocytes were poked with two electrodes and their membrane potential maintained, unless indicated, at −80 mV throughout the experiment.
(§6) A protocol to determine agonistic activity in the oocytes expressing the nAChRs was developed. The cells were exposed to a series of increasing concentrations of a compound agonist for 10 seconds each at two minute intervals. The current evoked from exposure to the agonist at each concentration was recorded. For oocytes expressing alpha7 nAChRs, exposure to the agonist was reduced to 5 seconds. This process was repeated for each agonist tested against each type of nAChR expressing cell.
(§7) To evaluate the agonistic properties of compound 1 hemi-galactarate dihydrate a protocol of brief exposures to a series of growing concentrations of compound 1 hemi-galactarate dihydrate was used.
(§8) Agonist Preparation: See Example 1. […] The test concentration of acetylcholine chloride was 1280 micromolar.
(§9) Experimental Procedures: Injections of cDNAs encoding for the human alpha3beta4, alpha3alpha5beta4, alpha4beta2, alpha4alpha6beta2, and alpha7 were performed in at least 95 oocytes using a proprietary automated injection device. Cellular receptor expression was examined at least two days later. Oocytes were poked with two electrodes and their membrane potential maintained, unless indicated, at −80 mV throughout the experiment.
as §6, with “developed. Oocytes expressing a nAChR subtype were exposed to a brief test pulse of acetylcholine (1280 micromolar) while the holding current and response was evaluated. Cells displaying robust currents were washed for 90 seconds.” for “developed.”, “were then” for “were”, “nAChR” for “compound”, “intervals. The nAChR agonist test concentrations were 0.1, 0.3, 1, 3, 10, 30, 100, 300 (micromolar).” for “intervals.”

human nAChR alpha3beta4 = molecular target: T3, human nAChR alpha3beta4 (Homo sapiens, UniProt P30926+P32297); assay: as above; conditions: for agonist character: versus ACh response, mono-citrate
T3 construct: expressed in transfected cells; host or cells: Xenopus laevis oocytes (cDNA injection)
Experimental: as §1, §2, §3, §4, §5, §6, §7, §8, §9
as §6, with “developed. Oocytes expressing a nAChR subtype were exposed to a brief test pulse of acetylcholine (1280 micromolar) while the holding current and response was evaluated. Cells displaying robust currents were washed for 90 seconds.” for “developed.”, “were then” for “were”, “nAChR” for “compound”, “intervals. The nAChR agonist test concentrations were 0.1, 0.3, 1, 3, 10, 30, 100, 300 (micromolar).” for “intervals.”

human nAChR alpha4beta2 = molecular target: T4, human nAChR alpha4beta2 (Homo sapiens, UniProt P17787+P43681); assay: as above; conditions: for agonist character: versus ACh response
T4 construct: expressed in transfected cells; host or cells: Xenopus laevis oocytes (cDNA injection)
Experimental: as §1, §2, §3, §4, §5, §6, §7, §8, §9
as §6, with “developed. Oocytes expressing a nAChR subtype were exposed to a brief test pulse of acetylcholine (1280 micromolar) while the holding current and response was evaluated. Cells displaying robust currents were washed for 90 seconds.” for “developed.”, “were then” for “were”, “nAChR” for “compound”, “intervals. The nAChR agonist test concentrations were 0.1, 0.3, 1, 3, 10, 30, 100, 300 (micromolar).” for “intervals.”

human nAChR alpha7 = molecular target: T5, human nAChR alpha7 (Homo sapiens, UniProt P36544); assay: as above; conditions: for percent of the maximal ACh-evoked current: at 300 μM (300 micromolar) agonist; for percent of the maximal ACh-evoked current / agonist character: mono-citrate; for agonist character: versus ACh response
T5 construct: expressed in transfected cells; host or cells: Xenopus laevis oocytes (cDNA injection)
Experimental: as §1, §2, §3, §4, §5, §6, §7, §8, §9
as §6, with “developed. Oocytes expressing a nAChR subtype were exposed to a brief test pulse of acetylcholine (1280 micromolar) while the holding current and response was evaluated. Cells displaying robust currents were washed for 90 seconds.” for “developed.”, “were then” for “were”, “nAChR” for “compound”, “intervals. The nAChR agonist test concentrations were 0.1, 0.3, 1, 3, 10, 30, 100, 300 (micromolar).” for “intervals.”

[4] = molecular target: T6, human nAChR alpha4alpha6beta2 (Homo sapiens, UniProt P17787+P43681+Q15825); assay: Agonist activity, two-electrode voltage clamp in Xenopus oocytes (Example 5); conditions: for agonist character: versus ACh response, mono-citrate
T6 construct: expressed in transfected cells; host or cells: Xenopus laevis oocytes (cDNA injection)
Experimental: as §1, §2, §3, §8, §9
as §6, with “developed. Oocytes expressing a nAChR subtype were exposed to a brief test pulse of acetylcholine (1280 micromolar) while the holding current and response was evaluated. Cells displaying robust currents were washed for 90 seconds.” for “developed.”, “were then” for “were”, “nAChR” for “compound”, “intervals. The nAChR agonist test concentrations were 0.1, 0.3, 1, 3, 10, 30, 100, 300 (micromolar).” for “intervals.”

T2 sequence (P32297 32-505): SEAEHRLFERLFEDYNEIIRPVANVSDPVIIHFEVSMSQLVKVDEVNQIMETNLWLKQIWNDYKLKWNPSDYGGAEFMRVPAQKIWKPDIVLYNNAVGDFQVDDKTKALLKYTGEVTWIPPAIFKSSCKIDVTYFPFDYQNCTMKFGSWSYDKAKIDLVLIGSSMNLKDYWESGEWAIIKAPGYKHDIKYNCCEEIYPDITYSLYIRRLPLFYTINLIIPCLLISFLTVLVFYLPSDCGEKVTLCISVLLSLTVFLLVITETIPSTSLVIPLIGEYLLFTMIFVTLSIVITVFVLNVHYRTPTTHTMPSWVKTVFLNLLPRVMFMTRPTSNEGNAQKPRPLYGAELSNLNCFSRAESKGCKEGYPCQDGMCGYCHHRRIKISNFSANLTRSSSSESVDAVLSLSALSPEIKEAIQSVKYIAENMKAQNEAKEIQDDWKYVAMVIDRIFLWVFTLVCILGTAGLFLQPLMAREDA
T2 sequence (P30532 23-468): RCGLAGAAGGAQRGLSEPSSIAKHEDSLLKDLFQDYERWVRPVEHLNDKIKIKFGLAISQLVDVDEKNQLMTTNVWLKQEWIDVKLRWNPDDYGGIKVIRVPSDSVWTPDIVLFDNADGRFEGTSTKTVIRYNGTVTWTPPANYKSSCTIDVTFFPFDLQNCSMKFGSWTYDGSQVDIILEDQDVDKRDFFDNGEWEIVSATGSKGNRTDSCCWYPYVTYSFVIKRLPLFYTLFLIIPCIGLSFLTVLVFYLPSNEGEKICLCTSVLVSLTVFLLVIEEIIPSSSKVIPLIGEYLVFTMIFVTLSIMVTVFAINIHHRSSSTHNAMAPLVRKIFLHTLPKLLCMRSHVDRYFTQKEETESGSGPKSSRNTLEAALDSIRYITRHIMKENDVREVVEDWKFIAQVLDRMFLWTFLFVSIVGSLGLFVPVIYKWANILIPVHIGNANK
T2 sequence (P30926 22-498): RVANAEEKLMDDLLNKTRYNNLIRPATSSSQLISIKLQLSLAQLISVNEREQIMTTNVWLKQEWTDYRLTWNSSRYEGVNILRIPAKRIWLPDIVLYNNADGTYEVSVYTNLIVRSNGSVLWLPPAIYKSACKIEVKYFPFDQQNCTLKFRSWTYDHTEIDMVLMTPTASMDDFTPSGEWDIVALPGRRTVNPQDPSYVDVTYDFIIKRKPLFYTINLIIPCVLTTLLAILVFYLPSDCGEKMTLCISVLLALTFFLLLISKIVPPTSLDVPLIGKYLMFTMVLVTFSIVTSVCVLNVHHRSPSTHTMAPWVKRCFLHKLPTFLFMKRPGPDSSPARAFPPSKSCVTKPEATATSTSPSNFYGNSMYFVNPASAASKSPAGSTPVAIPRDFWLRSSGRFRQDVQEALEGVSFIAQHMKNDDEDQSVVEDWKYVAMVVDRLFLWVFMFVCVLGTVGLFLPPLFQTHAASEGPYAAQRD
T3 sequence (P32297 32-505): as the sequence (P32297 32-505) above
T3 sequence (P30926 22-498): as the sequence (P30926 22-498) above
T6 sequence (P43681 29-627 limits assumed): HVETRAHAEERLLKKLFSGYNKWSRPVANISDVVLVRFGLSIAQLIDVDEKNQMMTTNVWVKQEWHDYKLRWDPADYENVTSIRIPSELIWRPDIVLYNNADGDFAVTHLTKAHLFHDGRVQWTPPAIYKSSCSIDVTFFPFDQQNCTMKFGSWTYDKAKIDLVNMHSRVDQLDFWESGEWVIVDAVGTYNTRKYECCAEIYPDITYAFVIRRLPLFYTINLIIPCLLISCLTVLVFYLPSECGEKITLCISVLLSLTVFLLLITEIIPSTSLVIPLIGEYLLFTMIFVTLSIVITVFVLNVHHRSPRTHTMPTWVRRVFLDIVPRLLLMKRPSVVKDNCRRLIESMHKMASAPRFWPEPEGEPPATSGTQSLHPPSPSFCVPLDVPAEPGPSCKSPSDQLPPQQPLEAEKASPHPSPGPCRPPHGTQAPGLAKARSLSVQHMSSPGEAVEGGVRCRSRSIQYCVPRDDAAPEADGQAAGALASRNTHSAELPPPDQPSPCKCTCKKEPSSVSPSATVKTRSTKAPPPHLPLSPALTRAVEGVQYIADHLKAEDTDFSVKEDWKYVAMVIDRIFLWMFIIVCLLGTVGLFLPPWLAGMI
T6 sequence (Q15825 26-494): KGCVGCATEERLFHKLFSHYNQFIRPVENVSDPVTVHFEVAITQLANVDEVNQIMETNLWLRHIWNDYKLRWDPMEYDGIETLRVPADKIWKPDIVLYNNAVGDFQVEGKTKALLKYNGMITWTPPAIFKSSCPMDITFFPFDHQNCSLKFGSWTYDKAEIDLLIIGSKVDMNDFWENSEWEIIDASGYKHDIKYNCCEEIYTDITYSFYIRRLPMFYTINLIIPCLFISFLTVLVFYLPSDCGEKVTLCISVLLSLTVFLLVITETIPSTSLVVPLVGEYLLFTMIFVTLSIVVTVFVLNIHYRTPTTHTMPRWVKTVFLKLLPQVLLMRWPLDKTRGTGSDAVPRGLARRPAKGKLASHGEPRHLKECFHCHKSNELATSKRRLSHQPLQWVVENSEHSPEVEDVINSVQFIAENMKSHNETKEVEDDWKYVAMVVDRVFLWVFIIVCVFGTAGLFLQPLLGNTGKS
T6 sequence (P17787 26-502): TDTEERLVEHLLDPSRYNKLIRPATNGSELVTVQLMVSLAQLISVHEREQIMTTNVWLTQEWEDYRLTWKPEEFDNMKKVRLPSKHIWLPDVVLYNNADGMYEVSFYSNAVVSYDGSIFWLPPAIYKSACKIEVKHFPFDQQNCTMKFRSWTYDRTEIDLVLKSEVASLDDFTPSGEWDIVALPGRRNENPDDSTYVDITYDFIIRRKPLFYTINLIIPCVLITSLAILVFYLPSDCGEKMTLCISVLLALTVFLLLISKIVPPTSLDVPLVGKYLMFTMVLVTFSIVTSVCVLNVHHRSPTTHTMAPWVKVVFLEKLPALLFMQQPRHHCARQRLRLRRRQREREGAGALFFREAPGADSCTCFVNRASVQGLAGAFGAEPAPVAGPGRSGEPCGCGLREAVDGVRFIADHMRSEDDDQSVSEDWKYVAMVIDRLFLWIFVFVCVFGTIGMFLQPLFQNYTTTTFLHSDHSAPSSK
T4 sequence (P43681 29-627 limits assumed): as the sequence (P43681 29-627 limits assumed) above
T4 sequence (P17787 26-502): as the sequence (P17787 26-502) above
T1 sequence (P43681 29-627 limits assumed): as the sequence (P43681 29-627 limits assumed) above
T1 sequence (P17787 26-502): as the sequence (P17787 26-502) above
T5 sequence (P36544 23-502): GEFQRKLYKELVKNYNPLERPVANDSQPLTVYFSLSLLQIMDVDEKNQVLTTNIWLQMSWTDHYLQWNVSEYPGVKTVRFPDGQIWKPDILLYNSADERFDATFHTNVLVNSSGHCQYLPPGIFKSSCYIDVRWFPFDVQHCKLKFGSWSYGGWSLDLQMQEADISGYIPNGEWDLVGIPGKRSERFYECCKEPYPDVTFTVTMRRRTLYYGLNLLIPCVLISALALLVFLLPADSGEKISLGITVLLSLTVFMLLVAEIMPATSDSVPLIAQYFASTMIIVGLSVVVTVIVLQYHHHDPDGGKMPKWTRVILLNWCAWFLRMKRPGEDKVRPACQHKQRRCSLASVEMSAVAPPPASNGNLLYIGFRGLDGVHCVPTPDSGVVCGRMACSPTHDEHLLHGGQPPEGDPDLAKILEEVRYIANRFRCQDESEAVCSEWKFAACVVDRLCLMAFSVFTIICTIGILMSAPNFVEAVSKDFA

N#Cc1cccc(-c2nc(-c3cccnc3)no2)c1 [NS-9283, 3-[3-(3-Pyridinyl)-1,2,4-oxadiazol-5-yl]benzonitrile]
positive allosteric modulator activity in the presence of compound 1 hemi-galactarate dihydrate (human alpha4beta2 nAChRs [1]): acts as a positive allosteric modulator; also recorded: potentiate the agonistic activity
dependence of potentiation on the order of agonist and PAM application (human alpha4beta2 nAChRs [1]): independent on the exposure protocol
maximal current evoked by compound 1 hemi-galactarate dihydrate (human alpha4beta2 nAChRs [1]): no significant increase
shift of the concentration activation curve to compound 1 hemi-galactarate dihydrate (human alpha4beta2 nAChRs [1]): significant shift to the left
effect of PAM on recovery from varenicline tartrate desensitization (human alpha4beta2 nAChRs [2]): failed to significantly modify the recovery time course
effect of PAM on amplitude of the current evoked by varenicline tartrate (human alpha4beta2 nAChRs [2]): enhanced the response
effect of PAM on profile of compound 1 hemi-galactarate dihydrate desensitization and recovery (human alpha4beta2 nAChRs [2]): minimal effect

O=C(N[C@@H]1CCCNC1)c1cc2cccc(Br)c2s1 [Br-PBTC, (R)-7-bromo-N-(piperidin-3-yl)benzo[b]thiophene-2-carboxamide]
positive allosteric modulator activity in the presence of compound 1 hemi-galactarate dihydrate (human alpha4beta2 nAChRs [1]): acts as a positive modulator; also recorded: potentiate the agonistic activity
dependence of potentiation on the order of agonist and PAM application (human alpha4beta2 nAChRs [1]): independent on the exposure protocol
maximal current evoked by compound 1 hemi-galactarate dihydrate (human alpha4beta2 nAChRs [1]): increase of the maximal evoked current; also recorded: increase of the amplitude of the current
shift of the concentration activation curve to compound 1 hemi-galactarate dihydrate (human alpha4beta2 nAChRs [1]): significant shift to the left; also recorded: shifted to the left
effect of PAM on recovery from varenicline tartrate desensitization (human alpha4beta2 nAChRs [2]): almost complete recovery within 3 hours; also recorded: almost full recovery; also recorded: partially reversed
effect of PAM on amplitude of the current evoked by varenicline tartrate (human alpha4beta2 nAChRs [2]): largely enhanced
effect of PAM on profile of compound 1 hemi-galactarate dihydrate desensitization and recovery (human alpha4beta2 nAChRs [2]): minimal effect

C(=C\[C@H]1CCNC1)/c1cncnc1 [compound 1 citrate, (R)-5-((E)-2-pyrrolidin-3-ylvinyl)pyrimidine mono-citrate]
EC50 ([3]; Example 5, read-out: EC50): 83 ± 9.05 µM
agonist character ([3]; listed as Compound 1 citrate): almost as a full agonist
agonist character [3]: almost full agonist
EC50 (human nAChR alpha3beta4; read-out: EC50): 34.9 ± 4.53 µM
agonist character (human nAChR alpha3beta4; listed as Compound 1 citrate): almost as a full agonist
agonist character (human nAChR alpha3beta4): almost full agonist
EC50 (human nAChR alpha4beta2; Example 5, read-out: EC50): 13.5 ± 2.06 µM
effect on the subsequent ACh-evoked current (human nAChR alpha4beta2; after exposure to the agonist concentration series, mono-citrate): Significant inhibition
agonist character (human nAChR alpha4beta2; listed as Compound 1 citrate, mono-citrate): almost as a full agonist
agonist character (human nAChR alpha4beta2; mono-citrate): almost full agonist
fraction of the maximal ACh-evoked current (human nAChR alpha7; 300 micromolar concentration): 25%
EC50 (human nAChR alpha7; Example 5, only an estimation): 126 ± 28.5 µM
percent of the maximal ACh-evoked current (human nAChR alpha7; listed as Compound 1 citrate): 25%
percent of the maximal ACh-evoked current (human nAChR alpha7): 25%
agonist character (human nAChR alpha7; listed as Compound 1 citrate): poor agonist
agonist character (human nAChR alpha7): weak partial agonist
EC50 [4]: 13.1 ± 3.68 µM
agonist character ([4]; listed as Compound 1 citrate): almost as a full agonist
agonist character [4]: almost full agonist
